“Also recorded” adds a separate entry of the source. Each block holds one compound with its values, some of them ahead of it.
Experiments:
[1] = Stability in DMSO; type: physicochemical
[2] = cited from earlier work
[3] = test system: bleomycin induced pulmonary fibrosis; assay: Bleomycin induced pulmonary fibrosis, 21 days; type: in vivo, mice; details: day 21; pirfenidone 100 mg/kg, IVc-059a 15 mg/kg
Procedure: A total of 40 male Balb/c mice aged 8-10 weeks were used for the study.
Mice were anesthetized using an IP injection of xylazine and ketamine. Once an appropriate plane of anaesthesia was achieved, animals had 1.0 U/kg bleomycin sulphate instilled via intratracheal route. The total volume of liquid was 50 μL.
Dosing of IV and positive control (pirfenidone) started 24 hours after bleomycin instillation.
Drug solution was formulated immediately prior to dosing. For a dose of 15 mg/kg (enough for 12, 30 g mice) 4.5 mg of compound was weighed out. 75 μl (5%) DMSO added and mixed until drug is in solution. 150 μl (10%) solutol added and vortexed gently, 150 μl (10%) PEG400 added and vortexed gently. 1000 μl PBS (pH7) was added and matrix was measured to ensure pH 7.0 was maintained. Remaining PBS (to a total of 1500 μl) was added. Compound remained in solution. […]
Ashcroft score: Lungs from each animal were FFPE, sectioned and stained with H&E according to an in-house protocol. […] Each lung was scored using the Ashcroft grading system to measure degree of inflammation/fibrosis as per Hubner et al., 2008. […]
An entire lung from each animal was formalin fixed and stored in 70% ethanol. […] Percent area covered by trichrome staining was quantified using Qupath and ImageJ software.

[4] = test system: acute pancreatitis murine model; assay: Caerulein-induced acute pancreatitis murine model; type: in vivo, Balb/c mice; set-up: Serum IL33 level / Serum TGF-B level: unit not given here
Procedure: Therapeutic efficacy of the compounds according to the present invention was assessed on an acute pancreatitis murine model. Tissue samples were obtained to allow post in-life analysis of pancreatitis parameters. Plasma samples were also obtained to assess animal exposure levels after administration of the compounds.
Animals: A total of 70 female Balb/c mice aged 8-10 weeks weighing approximately 20-25 g were used for the study (Charles River). After 7 days acclimatization, they were allocated into the different groups. […] Cages, bedding, and water were sanitized before use. Animals were provided with Corn-o-cobs enrichment bedding to provide environment enrichment and nesting material. […] The animal holding room were maintained as follows—room temperature at 20-24° C., humidity at 30-70% and a 12 h light/dark cycle used. Although animals used in this study were immuno-competent, preparation of dosing solutions and dosing/weighing of animals were carried out in a sterile biosafety cabinet.
Final formulation was in 5% DMSO, 10% Solutol, 10% PEG400, 75% 0.9% Saline and pH adjusted to 7 with 0.5M NaOH solution.
Final formulation is in 5% DMSO, 10% Solutol, 10% PEG400, 75% 0.9% Saline and pH adjusted to 7 with 0.5M NaOH solution. For per os (PO) dosing IVc-059a is formulated in water. Drug solutions were formulated on the day of dosing.
The purposes of this study were to assess efficacy compounds in an acute pancreatitis model (14 days), generate tissue samples to allow post in-life analysis of pancreatitis parameters and generate four plasma samples to assess animal exposure levels after first and last injection obtained from blood samples taken 1 h and 24 h after first and last injection.
Study Design: On the first study day animals were randomly be assigned to treatment groups, ensuring an equal spread of bodyweight. Mice (except negative control group) were treated with test compounds were given 5 minutes prior to caerulein dosing, followed by injection with caerulein at […] via intraperitoneal route (IP) daily during the study.
Treatment of test compounds were given 5 minutes prior to caerulein dosing.
Sampling and post in-life analyses: at times indicated above a whole blood sample (60 μl) were taken from the lateral tail vein into tubes coated with K2-EDTA. Plasma samples were prepared and stored frozen at −20° C. Plasma samples were sent to client bioanalysis provider Eurofins (FR) for quantification of compound.
Terminal Sampling: Prior to termination animals were weighed. Terminal study animals were culled via CO2 inhalation. A terminal blood sample was taken via cardiac puncture and plasma prepared. Lipase and Amylase activities were measured via ELISA using commercially available ELISA kits. Remaining plasma was stored for future cytokine analyses. Pancreas tissue was resected and weighed, and a section ([…]) snap frozen and analysed for quantification of compound in pancreas sample. A section ([…]) was processed for measurement of MPO activity, IL-33 and TGF-B levels via ELISA. The remainder was fixed in formalin and embedded in paraffin wax. H&E staining was carried out and section assessed using Schmidts standard scoring system, examining: edema, inflammatory infiltration, parenchymal necrosis, haemorrhage. Massons' Trichrome staining was carried out and area covered by fibrotic tissue quantified digitally using QuPath software. Terminal serum samples was used to assess blood chemistry using an IdeXX CHEM15 and LYTE4 clip (4 animals per treatment group).
Histopathology assessment of pancreatic injury based on 4 criteria: Oedema, Inflammatory infiltration, Parenchymal necrosis, Haemorrhage and scored as described below.
Schmidt score is the evaluation of the efficacy of the compounds based on the four histopathology criteria as described in the table below.

[5] = 1st experiment, caerulein induced, 15 mg/kg IV, Ib-010a and IVc-059a 150 mg/kg PO, Pirfenidone 40 mg/kg IV
[6] = 1st experiment, terminal pancreatic tissue, 15 mg/kg IV, Ib-010a and IVc-059a 150 mg/kg PO, Pirfenidone 40 mg/kg IV
[7] = 1st experiment, terminal serum, 15 mg/kg IV, Ib-010a and IVc-059a 150 mg/kg PO, Pirfenidone 40 mg/kg IV
[8] = second experiment, IV, 15 mg/kg, Pirfenidone 100 mg/kg

Stability in DMSO (in words) [1]: unstable in DMSO
SMILES: O=C(O)c1cc(O)c(-c2nc3cccc(C(=O)O)c3[nH]2)cc1O [Id-030a, 2-(4-Carboxy-2,5-dihydroxyphenyl)-1H-benzo[d]imidazole-4-carboxylic acid]

SMILES: CNC(=O)c1cccc(C(=O)NC)c1O [bis (N-methyl)amide of 2-hydroxyisophthalic acid]
pKa of phenol [2]: 6.81

Mean terminal BW (% of initial) [4, 5]: 97.6 % of initial
SMILES: Cc1ccc(=O)n(-c2ccccc2)c1 [pirfenidone, reference compound]
Onset of fibrosis in mouse lung (Ashcroft score) [3]: reduced the onset of fibrosis in mouse lung | Acinar cell necrosis (group mean score) [4, 5]: 0.8 | Haemorrhage (group mean score) [4, 5]: 0.4 | Interstitial oedema (group mean score) [4, 5]: 1.0 | Leukocyte infiltration (group mean score) [4, 5]: 2.0 | Mean terminal pancreas weight [4, 5]: 0.136 g | Pancreas histopathology observations (H&E) [4, 5]: Mild oedema observed; also recorded: Mild haemorrhage observed; also recorded: Mild acinar cell necrosis observed; also recorded: Leukocyte infiltration observed; also recorded: Normal islet morphology observed in areas | Schmidt Score (H&E) ([4]; 1st experiment, caerulein induced, 15 mg/kg IV, Ib-010a and IVc-059a 150 mg/kg PO, Pirfenidone 40 mg/kg IV, induced + vehicle = 10, non-induced = 0): 4.1 | Pancreas IL33 level [4, 6]: 78 ± 23 | Pancreas MPO activity [4, 6]: 1.26 | Pancreas TGF-B level [4, 6]: 289 ± 170 | Serum IL33 level [4, 7]: 39.16 | Serum TGF-B level [4, 7]: 5.5 | Serum amylase level [4, 7]: 37.71 | Serum lipase level [4, 7]: 7.65 | Amylase [4, 8]: 45.171 mU/mL | IL-33 [4, 8]: 226 ± 151 ng/mL | Lipase [4, 8]: 4.541 mU/mL | MPO [4, 8]: 1.68 ± 0.44 U/mg | Schmidt Score [4, 8]: 8 ± 1 | TGF-B [4, 8]: 578 ± 230 ng/mL | Trichome staining (Fibrosis % area) [4, 8]: 1.277 ± 0.888 % area | Lipase activity in serum ([4]; second experiment, pirfenidone 100 mg/kg, compounds 15 mg/k, vs vehicle treated animals): significantly lower than that in vehicle treated animals | MPO activity in pancreatic tissue ([4]; second experiment, vs induced vehicle treated controls): significantly lower than induced vehicle treated controls
